According to ChEMBL document CHEMBL1201862, “PubChem BioAssay data set” (2004):
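Results reflect a 48-hour exposure of cells in 96-well plates to compound at five concentrations. At the GI50, growth is halved.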 Active and inactive are the calls of the source. Cut-off read from the data, not from the text of the source: active = GI50 up to about 1.1 µM and inactive = higher.

What was measured:
Assay in all cases: DTP human tumour cell line panel, 48 h
DMS-114 = tested on: DMS-114
DMS-273 = tested on: DMS-273
HOP-18 = tested on: HOP-18
KM-20L2 = tested on: KM-20L2
LXFL 529 = tested on: LXFL 529
M19-MEL = tested on: M19-MEL
RXF 631 = tested on: RXF 631
SNB-78 = tested on: SNB-78
XF498 = tested on: XF498

Measured: GI50

O=C(/C=C1/NC(=O)CS1)Nc1ccccc1
inactive: DMS-114 > 100 µM | DMS-273 > 100 µM | HOP-18 > 100 µM | KM-20L2 > 100 µM | LXFL 529 > 100 µM | M19-MEL > 100 µM | RXF 631 > 100 µM | SNB-78 > 100 µM | XF498 > 100 µM

CC(=O)NC(ON1C(=O)COc2ccccc21)C(Cl)(Cl)Cl (stereo not drawn)
inactive: DMS-273 > 100 µM | KM-20L2 > 100 µM | LXFL 529 > 100 µM | SNB-78 > 100 µM | XF498 > 100 µM

CCN(CC)c1ccc(/N=C2/C=CC(=C(C#N)C#N)c3ccccc32)c(C)c1
inactive: DMS-273 1.85 µM | HOP-18 2.32 µM | KM-20L2 1.95 µM | M19-MEL 1.94 µM | SNB-78 1.63 µM | XF498 1.44 µM

Nc1ccc(C(=O)N/C(=C\c2cccc([N+](=O)[O-])c2)c2nc3cc(Cl)ccc3[nH]2)cc1
inactive: DMS-114 > 100 µM | KM-20L2 17 µM | LXFL 529 31 µM | M19-MEL > 100 µM | RXF 631 63 µM | SNB-78 > 100 µM | XF498 43.1 µM

C=CCN(N=O)C(=O)N(CCCC(NC(C)=O)C(=O)NCc1ccccc1)Cc1ccccc1 (stereo not drawn)
inactive: DMS-114 36.9 µM | DMS-273 95.7 µM | KM-20L2 42.2 µM | LXFL 529 46.1 µM | M19-MEL 44.4 µM | RXF 631 47.2 µM | XF498 36.3 µM

CSc1nc(-c2ccccc2)nc(N2CCOCC2)[s+]1
inactive: DMS-273 > 100 µM | HOP-18 > 100 µM | KM-20L2 > 100 µM | LXFL 529 37.3 µM | M19-MEL > 100 µM | SNB-78 > 100 µM

CC1(C)OC(COCCOCCCCCO)C(COCCOCCCCCO)O1 (stereo not drawn)
inactive: DMS-114 > 100 µM | DMS-273 > 100 µM | HOP-18 > 100 µM | KM-20L2 > 100 µM | LXFL 529 > 100 µM | M19-MEL > 100 µM | RXF 631 > 100 µM | SNB-78 > 100 µM

Cc1ccccc1NC(=O)Cc1nc2ccccc2s1
inactive: DMS-273 17.6 µM | HOP-18 1.72 µM | KM-20L2 18.4 µM | LXFL 529 16.4 µM | RXF 631 16 µM | SNB-78 18.6 µM | XF498 14.5 µM

CCOc1ccc(/N=C/c2cccc3cccnc23)cc1
inactive: DMS-114 88.7 µM | DMS-273 81.3 µM | HOP-18 > 100 µM | KM-20L2 > 100 µM | LXFL 529 13.2 µM | M19-MEL > 100 µM | RXF 631 > 100 µM | SNB-78 > 100 µM | XF498 > 100 µM

Cc1cc2c(c(C(=O)O)c1C)-c1cccc(Cl)c1C2=O
inactive: DMS-114 > 100 µM | DMS-273 > 100 µM | KM-20L2 > 100 µM | LXFL 529 > 100 µM | M19-MEL > 100 µM | SNB-78 > 100 µM | XF498 > 100 µM

COc1ccc2c(c1)[n+]([O-])c(-c1ccc(Br)cc1)c(N)[n+]2[O-]
inactive: DMS-114 23.1 µM | DMS-273 24.1 µM | HOP-18 > 100 µM | KM-20L2 34.5 µM | M19-MEL 44.3 µM | SNB-78 54.6 µM | XF498 68.4 µM

[Zn+2][N+]12CCN3CCN4CCN(CC1)[PH]432 (stereo not drawn)
inactive: DMS-114 > 100 µM | DMS-273 > 100 µM | HOP-18 > 100 µM | KM-20L2 > 100 µM | LXFL 529 > 100 µM | M19-MEL > 100 µM | SNB-78 > 100 µM

COc1ccc(C(C#N)NNC(=O)Cc2ccccc2)cc1OC (stereo not drawn)
inactive: DMS-114 > 100 µM | DMS-273 > 100 µM | HOP-18 > 100 µM | LXFL 529 > 100 µM | M19-MEL > 100 µM | SNB-78 > 100 µM

COC(=O)/C(=N/NC(=O)C[N+](C)(C)C)C(C(=O)OC)C(=O)C(=O)Nc1ccc(F)cc1 (stereo not drawn)
inactive: DMS-114 > 100 µM | DMS-273 > 100 µM | HOP-18 > 100 µM | KM-20L2 > 100 µM | LXFL 529 > 100 µM | M19-MEL > 100 µM | RXF 631 > 100 µM | SNB-78 > 100 µM

Cc1cc(Cl)ccc1NC(=O)CCCC(=O)C1CCC/C1=N\NC(=O)CC#N (stereo not drawn)
inactive: DMS-114 > 100 µM | DMS-273 > 100 µM | HOP-18 17.2 µM | KM-20L2 > 100 µM | LXFL 529 > 100 µM | M19-MEL > 100 µM | RXF 631 > 100 µM | SNB-78 > 100 µM | XF498 > 100 µM

COC(=O)c1ccc(C(=O)OC)c2nc3cc(C)ccc3nc12
inactive: DMS-114 > 100 µM | DMS-273 > 100 µM | HOP-18 > 100 µM | KM-20L2 > 100 µM | LXFL 529 > 100 µM | RXF 631 > 100 µM | SNB-78 > 100 µM | XF498 > 100 µM

CCOC(=O)C(=O)Nc1c(C)cccc1C(C)C
inactive: DMS-114 > 100 µM | DMS-273 > 100 µM | HOP-18 > 100 µM | KM-20L2 > 100 µM | LXFL 529 > 100 µM | M19-MEL > 100 µM | RXF 631 > 100 µM | SNB-78 > 100 µM | XF498 > 100 µM

CC1CC(c2ccccc2)=Nc2ccccc2S1(=O)=O (stereo not drawn)
inactive: DMS-114 20.9 µM | DMS-273 20.1 µM | HOP-18 13.9 µM | KM-20L2 17.8 µM | LXFL 529 15.3 µM | M19-MEL 14.9 µM | RXF 631 > 10 µM | SNB-78 15 µM | XF498 18.6 µM

Cc1ccc(S(=O)(=O)SCc2ccccc2)cc1
inactive: DMS-114 22.2 µM | DMS-273 28.1 µM | HOP-18 > 80.4 µM | KM-20L2 22.9 µM | LXFL 529 14.3 µM | M19-MEL 33.7 µM | SNB-78 18.5 µM | XF498 35.5 µM

COC(=O)/C(=N\NC(N)=O)C(C(=O)C=C(C)C)C(=O)C(=O)Nc1ccc(Cl)c(Cl)c1 (stereo not drawn)
inactive: DMS-114 > 100 µM | DMS-273 > 100 µM | HOP-18 > 100 µM | KM-20L2 > 100 µM | LXFL 529 > 100 µM | M19-MEL > 100 µM | RXF 631 > 100 µM | SNB-78 > 100 µM | XF498 > 100 µM

O=C(O)CNCc1c2ccccc2nc2ccccc12
inactive: DMS-114 20.7 µM | DMS-273 40.2 µM | HOP-18 > 100 µM | KM-20L2 29.3 µM | LXFL 529 26.5 µM | M19-MEL 54.7 µM | SNB-78 54 µM | XF498 28.8 µM

CCCCCC(=O)OCCOCCOCCOCCOCCOCc1ccccc1
inactive: DMS-114 > 100 µM | DMS-273 > 100 µM | HOP-18 > 100 µM | KM-20L2 > 100 µM | SNB-78 > 100 µM | XF498 > 100 µM

CC(C)N1C(C)[C@@H](c2ccccc2)O[P@]1(=O)CC1=CCCCC1 (stereo partly drawn)
inactive: DMS-114 49.5 µM | HOP-18 > 100 µM | KM-20L2 94.8 µM | LXFL 529 92.5 µM | M19-MEL > 100 µM | XF498 > 100 µM

C[C@]12CCC[C@H](OC=O)C1(O)C[C@H](C(=O)O)CC2 (stereo partly drawn)
inactive: DMS-114 > 100 µM | DMS-273 > 100 µM | HOP-18 > 100 µM | KM-20L2 19 µM | LXFL 529 > 100 µM | M19-MEL > 100 µM | RXF 631 > 100 µM | SNB-78 > 100 µM | XF498 > 100 µM

c1ccc2c(c1)Sc1ccccc1N2C1CN2CCC1CC2 (stereo not drawn)
inactive: DMS-114 17.9 µM | DMS-273 16.4 µM | HOP-18 18.2 µM | KM-20L2 15.2 µM | LXFL 529 16.9 µM | M19-MEL 16 µM | SNB-78 14.4 µM | XF498 13.9 µM
